Measurements taken from US20140128352A1, “COMPOUNDS AND METHODS FOR MODULATING MITOCHONDRIAL METABOLISM AND REACTIVE OXYGEN SPECIES PRODUCTION” (Buck Institute for Research on Aging, priority 2012, published 2014).
“Also recorded” adds a separate entry of the source.

Key:
[1] = system: mitochondrial respiration; assay: Mitochondrial respiration, Seahorse XF24; type: biochemical, rat; conditions: complex I, complex II or glycerol phosphate substrates; states 2, 3, 4
Method: Measurements of ΔΨm described in the previous examples were made under “resting” conditions in which substrates were present but ΔΨm was not coupled to ATP (energy) production by mitochondria. To test the effect of candidate compounds on mitochondrial bioenergetics under energy producing conditions, respiratory coupling parameters were measured in isolated mitochondria in microplate format using a Seahorse XF 24 analyzer (Rogers, G. et al. (2011) High Throughput Microplate Respiratory Measurements Using Minimal Quantities of Isolated Mitochondria. PLoS One. 6(7): e21746). […] ATP synthesis was terminated by injection of oligomycin (0.5 μg/mL) and leak-dependent respiration was measured (state 4o). Finally, the complex III inhibitors antimycin A (2.5 uM) and myxothiazol (2 μM) were injected to terminate respiration. Respiratory profiles were evaluated for signs of inhibition (decreased states 2, 3, or 4o) or uncoupling (increased states 2 or 4o) by candidate compounds. Seahorse XF experiments were performed in a mannitol-sucrose based buffer as described in Rogers et al. 2011. For respiration experiments driven by glycerol phosphate, this buffer was supplemented with CaCl2 to a final free concentration of 250 nM.

site IQ = assay: Retest of IQ ROS production (expanded microplate panel / cuvette); type: biochemical, rat; conditions: for effect on IQ ROS with subsaturating substrate: subsaturating (0.5 mM) succinate
Method: Compounds identified as site-selective hits as well as structural analogs were re-sourced from ChemBridge and dissolved in DMSO as 80 mM stocks. Master Titration Plates were prepared manually by serially diluting 80 mM compound stocks between 0.08 and 80 mM on 96-well microplates. Four compounds were titrated in duplicate on each plate. Additional DMSO controls were interspersed across these plates to serve as local normalization controls during analysis since two-way median polishing was not appropriate. Just prior to use, compounds were diluted 100-fold with standard buffer (10X). The same known inhibitor positive controls were included on each plate as during high-throughput screening.
The five core ROS assays and single ΔΨm assay were carried out as in the initial high-throughput screen. In addition, several assays were included to help validate the specificity of the compounds for a given site of production. All compounds were titrated against separate assays targeting IQ ROS and IIIQo ROS using subsaturating (0.5 mM final) succinate. […] Specifically, ΔΨm was monitored separately with 5 mM succinate (in the presence of 4 μM rotenone) in addition to glutamate and malate as before. The use of different substrates was designed to reveal compounds that disrupt mitochondrial function in a substrate specific manner.
Most frequently, these changes involved the use of different substrates to supply electrons from an alternative entry point in the chain. If a site of ROS production is being targeted selectively by a compound, then in many cases the supply of electrons should not influence the effectiveness of this compound at suppressing ROS production. […] Alternative conditions are listed below: • 1) IQ ROS: 5 mM succinate with 1 mM glutamate • 2) IF ROS: 5 mM malate only as substrate (in the presence of 4 μM rotenone) • 3) IIIQo ROS: 5 mM succinate (in the presence of 3 mM malonate, 4 uM rotenone, and 2.5 μM antimycin A) • 4) IIIQo ROS: 25 mM glycerol phosphate (in the presence of 1 mM malonate, 4 μM rotenone, and 2.5 μM antimycin A) • 5) SDH: 0.5 mM succinate (in the presence of 4 uM rotenone, 2.5 uM antimycin A, and 2 μM myxothiazol) • 6) GPDH: Vary the concentration of glycerol phosphate in the presence or absence of 250 nM free calcium to allosterically activate GPDH (all in the presence of 4 μM rotenone, 2.5 uM antimycin A, 1 mM malonate, and 2 μM myxothiazol) • 7) ΔΨm: Vary the concentration of glycerol phosphate in the presence or absence of 250 nM free calcium to allosterically activate GPDH and in the presence or absence of 80 ng/mL nigericin (all in the presence of 4 μM rotenone)
The fluorescence values in each well were scaled in relation to the intra-plate DMSO and known inhibitor controls as in the high-throughput screen except that median values for local interspersed DMSO wells (3-6 wells) were used rather than just the 8 DMSO wells in columns 1 and 12. This normalization was applied in place of the two-way median polish used during high-throughput screening to minimize row and column effects. […] At this stage, strong candidates were not necessarily excluded from further testing if subtle off-target effects were observed (e.g. loss of specificity or signs of general inhibition at the highest concentrations). Rather, these candidates were often pursued for more detailed mechanistic studies with the expectation that subsequent structure activity analysis would provide insight into which structurally related compounds would provide the optimal specificity for a given site of production.
Candidate compounds that remained site-selective following robotics assisted retesting were subsequently tested for effects on ROS production and ΔΨm with a Varian Cary Eclipse fluorimeter (excitation 550 nm, emission at 590 nm). This experimental format allows kinetic measurements of ROS production and ΔΨm with more accurate temperature control, sample stirring, and background correction. […]

site IIIQo = biological target: T1, site IIIQo (Rattus norvegicus, UniProt P00159+P20788); assay: Retest of IIIQo ROS production (expanded microplate panel); type: biochemical
T1 construct: freshly isolated muscle mitochondria were assayed; from tissue; host or cells: rat skeletal muscle mitochondria (Wistar, Harlan Laboratories)
Method: (§1) Compounds identified as site-selective hits as well as structural analogs were re-sourced from ChemBridge and dissolved in DMSO as 80 mM stocks. Master Titration Plates were prepared manually by serially diluting 80 mM compound stocks between 0.08 and 80 mM on 96-well microplates. Four compounds were titrated in duplicate on each plate. Additional DMSO controls were interspersed across these plates to serve as local normalization controls during analysis since two-way median polishing was not appropriate. Just prior to use, compounds were diluted 100-fold with standard buffer (10X). The same known inhibitor positive controls were included on each plate as during high-throughput screening. The five core ROS assays and single ΔΨm assay were carried out as in the initial high-throughput screen. In addition, several assays were included to help validate the specificity of the compounds for a given site of production. […] The use of different substrates was designed to reveal compounds that disrupt mitochondrial function in a substrate specific manner. […] Most frequently, these changes involved the use of different substrates to supply electrons from an alternative entry point in the chain. If a site of ROS production is being targeted selectively by a compound, then in many cases the supply of electrons should not influence the effectiveness of this compound at suppressing ROS production. […] The fluorescence values in each well were scaled in relation to the intra-plate DMSO and known inhibitor controls as in the high-throughput screen except that median values for local interspersed DMSO wells (3-6 wells) were used rather than just the 8 DMSO wells in columns 1 and 12. This normalization was applied in place of the two-way median polish used during high-throughput screening to minimize row and column effects. […] At this stage, strong candidates were not necessarily excluded from further testing if subtle off-target effects were observed (e.g. loss of specificity or signs of general inhibition at the highest concentrations). Rather, these candidates were often pursued for more detailed mechanistic studies with the expectation that subsequent structure activity analysis would provide insight into which structurally related compounds would provide the optimal specificity for a given site of production.

site IF = biological target: T2, site IF (Rattus norvegicus, UniProt Q5XIH3); assay: Retest of IF ROS production (expanded microplate panel); type: biochemical
T2 construct: freshly isolated muscle mitochondria were assayed; from tissue; host or cells: rat skeletal muscle mitochondria (Wistar, Harlan Laboratories)
Method: as §1

T2 sequence (Q5XIH3 21-464 limits assumed): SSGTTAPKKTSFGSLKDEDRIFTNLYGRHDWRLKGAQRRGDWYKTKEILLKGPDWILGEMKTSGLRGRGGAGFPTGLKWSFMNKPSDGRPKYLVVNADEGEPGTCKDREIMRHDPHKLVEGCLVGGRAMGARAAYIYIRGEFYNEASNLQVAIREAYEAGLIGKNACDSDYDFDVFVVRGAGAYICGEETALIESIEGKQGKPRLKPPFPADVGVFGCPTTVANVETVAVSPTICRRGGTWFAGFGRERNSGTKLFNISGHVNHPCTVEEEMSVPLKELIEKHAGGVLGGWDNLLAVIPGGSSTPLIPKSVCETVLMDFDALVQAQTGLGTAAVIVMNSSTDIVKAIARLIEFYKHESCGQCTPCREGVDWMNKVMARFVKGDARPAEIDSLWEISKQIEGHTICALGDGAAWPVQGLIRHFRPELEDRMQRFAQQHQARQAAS

SMILES | effect on mitochondrial respiration [1] | effect on IQ ROS with subsaturating substrate (site IQ; retest) | effect on IIIQo ROS (site IIIQo) | effect on IF ROS and selectivity for site IF (site IF) | also measured
O=[N+]([O-])c1ccc(Oc2ccc(S(=O)(=O)NC3CCCCC3)cc2)cc1 [Compound 4] | did not significantly inhibit or show signs of uncoupling respiration under any conditions except at 80 uM; also recorded: does not inhibit forward electron flow through CI |  |  |  | effects on other major sites of ROS production (site IQ; 2.5 uM): without discernible effects on any other major sites within mitochondria
O=C(O)C1CCCCC1C(=O)NC1CCCCC1 (stereo not shown) [Compound 19] | inhibits ADP-stimulated respiration with complex I substrates; also recorded: no signs of uncoupling but did reveal a progressive inhibition of state 3 respiration (ATP producing) only with CI substrates | minimal effects on IQ ROS production driven with subsaturating substrate until 25 μM | unaffected until the highest concentration tested (80 μM) | selectively lowers ROS production from site IF | effect on IQ ROS with saturating substrate (site IQ; retest, saturating substrate): unaffected until the highest concentration tested (80 μM); inhibition at 2.5 µM (site IF; 2.5 μM): 24%
COc1cc(CN(CCN(C)C)Cc2ccccc2)cc(OC)c1 [Compound 31] |  | stronger off-target effects on IQ ROS when driven by low concentration succinate |  | improved selectivity toward the IF site in combination with a lowered effect on ΔΨm | 
Cc1ccc(C)c(CN(CCCN(C)C)CCCN(C)C)c1 [Compound 32] | increases ADP-stimulated respiration specifically with complex I substrates; also recorded: significantly increased state 3 respiration specifically with CI substrates |  |  | selectively lowers ROS production from site IF; also recorded: further improved selectivity for IF without compromising ΔΨm | 
COc1ccc(Cl)cc1N(Cc1ccccc1)Cc1ccccc1 [Compound 34] |  | consistently increased IQ ROS but only with subsaturating substrate | selectively lowers ROS production from site IIIQo independent of substrate concentration |  | inhibition at 8 µM (site IIIQo; 8 μM, independent of substrate concentration): 60%
CC1=CC(C)(C)N(Cc2ccc([N+](=O)[O-])cc2)c2ccccc21 [Compound 37] | did not uncouple state 2 respiration; also recorded: does not show signs of uncoupling state 2 respiration at high concentrations | decreased IQ ROS with low substrate; also recorded: lowers site IQ ROS with subsaturating succinate | lowers ROS from site IIIQo independent of substrate concentration |  | 
O=C(O)CSc1cccc(C(=O)Nc2ccc(Br)cc2)c1 [Compound 47] |  |  | off-target effect on site IIIQo ROS |  | 
